# Measured values: patent EP0738727B1, “1,4-BENZOXAZINE-2-ACETIC ACID COMPOUND, PROCESS FOR PRODUCING THE SAME, AND USE THEREOF” (Senju Pharmaceutical Co., Ltd., priority 1994, dated 1995)
# Marks after values point to notes of the source that are not given here.
# Assays:
# [1] = tested on: sorbitol accumulation in tissues; experiment: Inhibitory action on sorbitol accumulation in tissues of rats with experimental (streptozotocin) diabetes; assay type: in vivo, Sprague-Dawley rats; conditions: measured 3 hours after final administration, control taken as 100%; for Sorbitol accumulation (%) nerve: sciatic nerve
# Procedure: Sprague-Dawley rats (male, 6 weeks old, 5-6 per group) were fasted for 18 hours and injected with streptozotocin (SIGMA, 60 mg/kg) via the tail vein under etherization to prepare rats with diabetes.
# The various compounds were orally administered at 4, 8 and 24 hours after the injection of streptozotocin, at 10 mg/kg or 30 mg/kg as a 0.5% carboxymethylcellulose suspension. During the administrations, the rats were raised under free access to feed and water, and the sorbitol content of the tissues (erythrocytes, sciatic nerve, lens) was determined 3 hours after the final administration, according to the enzyme method of H.Y. Bergmeyer et al. [Methods of Enzymatic Analysis, vol. 3, 1323-1330 (1974)] with the use of SDH (sorbitol dehydrogenase) and NAD (β-nicotinamide adenine dinucleotide). The results (sorbitol accumulation) are expressed in percent (%) relative to the value of a control group administered with 0.5% carboxymethylcellulose solution (solvent) instead of the drug, which was taken as 100%.
# aldose reductase = biological target: T1, aldose reductase (Sus scrofa, UniProt P80276); experiment: Aldose reductase inhibitory action (method of S. Hayman et al., absorbance change at 340 nm); assay type: biochemical; conditions: swine lens enzyme, 3 mM dl-glyceraldehyde, 0.1 mM NADPH, pH 6.2, 25°C
# T1 construct: swine lenses freeze-stored at -80°C were homogenized with distilled water and centrifuged at 10,000 G for 15 minutes; from tissue; host or cells: swine lens
# Procedure: An aldose reductase enzyme standard product was prepared from swine lens according to the method of S. Hayman et al. [Journal of Biological Chemistry, 240, 877-882 (1965)]. That is, swine lenses freeze-stored at -80°C were homogenized with distilled water and centrifuged at 10,000 G for 15 minutes. The supernatant was prepared into a 40% ammonium sulfate solution and subjected to centrifugation at 10,000 G for 10 minutes. The supernatant obtained was dialyzed overnight against a 0.05 M sodium chloride solution to give a dialyzed solution, which was used as an enzyme standard product.
# The activity of aldose reductase was determined by the above-mentioned method of S. Hayman et al. That is, the above-mentioned enzyme solution (25 µl) and a drug solution (25 µl) dissolved in 1% DMSO at various concentrations were added to a 40 mM phosphate buffer (200 µl, pH 6.2) containing, at final concentrations, 0.4 M lithium sulfate, 0.1 mM NADPH (reduced type nicotinamide adenine dinucleotide phosphate) and 3 mM dl-glyceraldehyde as a substrate. The mixture was allowed to react at 25°C for 2 minutes and the changes in absorbance at 340 nm were determined with COBAS FARA II (manufactured by Roche). The changes in absorbance when 1% DMSO was added instead of the drug solution was taken as 100%, based on which 50% inhibition concentration (IC50) was calculated and shown in Table 1. […] The test drug number indicates the example number to be mentioned later. IC50 (M) means the concentration of the drug at which the aldose reductase activity is inhibited by 50% Table 1
# ICR mice = experiment: Acute toxicity after a single oral dose in mice; assay type: in vivo; conditions: 300 mg/kg orally, male ICR mice, observation for 14 days
# Procedure: Normal ICR mice (male, 7 weeks old, 5 per group) were fasted for 18 hours and the compound (300 mg/kg) of Example 33 was orally administered as a 0.5% carboxymethylcellulose suspension. To the control group, a 0.5% carboxymethylcellulose solution alone was orally administered, and observation was continued for 14 days thereafter, during which period the mice were allowed to take feed and water freely.
# [2] = 30 mg/kg orally at 4, 8 and 24 hours after streptozotocin
# [3] = 10 mg/kg orally at 4, 8 and 24 hours after streptozotocin
smiles,measurement,setting,value
"CC(C)c1cccc2c1OC(C(C)C)C(=S)N2CC(=O)O (stereo not drawn) [Compound A, 3,4-dihydro-2,8-diisopropyl-3-thioxo-2H-1,4-benzoxazine-4-acetic acid, reference compound]",Sorbitol accumulation (%) erythrocytes,[1]; [2],53.7* %
same,Sorbitol accumulation (%) lens,[1]; [2],87.3%
same,Sorbitol accumulation (%) nerve,[1]; [2],54.9** %
"O=C(O)CC1Oc2ccccc2N(Cc2nc3cc(Cl)ccc3s2)C1=O (stereo not drawn) [Example 25, 2-[4-(5-chlorobenzothiazol-2-yl)methyl-3,4-dihydro-3-oxo-2H-1,4-benzoxazin-2-yl]acetic acid]",IC50,aldose reductase,8.6 nM
"O=C(O)CC1Oc2ccc(F)cc2N(Cc2nc3c(F)c(F)ccc3s2)C1=O (stereo not drawn) [Example 26, 2-[6-fluoro-4-(4,5-difluorobenzothiazol-2-yl)methyl-3,4-dihydro-3-oxo-2H-1,4-benzoxazin-2-yl]acetic acid]",IC50,aldose reductase,9.6 nM
"O=C(O)CC1Oc2ccc(F)cc2N(Cc2nc3cc(F)cc(F)c3s2)C1=O (stereo not drawn) [Example 27, 2-[6-fluoro-4-(5,7-difluorobenzothiazol-2-yl)methyl-3,4-dihydro-3-oxo-2H-1,4-benzoxazin-2-yl]acetic acid]",IC50,aldose reductase,9.9 nM
"O=C(O)CC1Oc2ccc(F)cc2N(Cc2nc3c(Cl)c(Cl)ccc3s2)C1=O (stereo not drawn) [Example 28, 2-[4-(4,5-dichlorobenzothiazol-2-yl)methyl-6-fluoro-3,4-dihydro-3-oxo-2H-1,4-benzoxazin-2-yl]acetic acid]",Sorbitol accumulation (%) erythrocytes,[1]; [3],16.3** %
same,Sorbitol accumulation (%) lens,[1]; [3],89.3%
same,Sorbitol accumulation (%) nerve,[1]; [3],56.0** %
"O=C(O)CC1Oc2ccccc2N(Cc2nc3c(F)c(F)cc(F)c3s2)C1=O (stereo not drawn) [Example 30, 2-[4-(4,5,7-trifluorobenzothiazol-2-yl)methyl-3,4-dihydro-3-oxo-2H-1,4-benzoxazin-2-yl]acetic acid]",Sorbitol accumulation (%) erythrocytes,[1]; [3],22.2** %
same,Sorbitol accumulation (%) lens,[1]; [3],45.2** %
same,Sorbitol accumulation (%) nerve,[1]; [3],1.0** %
"O=C(O)CC1Oc2ccccc2N(Cc2nc3cc(F)cc(F)c3s2)C1=O (stereo not drawn) [Example 32, 2-[4-(5,7-difluorobenzothiazol-2-yl)methyl-3,4-dihydro-3-oxo-2H-1,4-benzoxazin-2-yl]acetic acid]",Sorbitol accumulation (%) erythrocytes,[1]; [3],27.2** %
same,Sorbitol accumulation (%) lens,[1]; [3],39.1** %
same,Sorbitol accumulation (%) nerve,[1]; [3],11.4** %
"O=C(O)CC1Oc2ccccc2N(Cc2nc3ccc(F)c(F)c3s2)C1=O (stereo not drawn) [Example 33, 2-[4-(6,7-difluorobenzothiazol-2-yl)methyl-3,4-dihydro-3-oxo-2H-1,4-benzoxazin-2-yl]acetic acid]",death,ICR mice,no case of death
same,weights,ICR mice; compared with control group,showed transition in the same manner as in the control group
"O=C(O)CC1Oc2ccccc2N(Cc2nc3c(Cl)c(Cl)ccc3s2)C1=O (stereo not drawn) [Example 34, 2-[4-(4,5-dichlorobenzothiazol-2-yl)methyl-3,4-dihydro-3-oxo-2H-1,4-benzoxazin-2-yl]acetic acid]",IC50,aldose reductase,9.9 nM
"Cc1ccc2c(c1)N(Cc1nc3c(F)c(F)cc(F)c3s1)C(=O)C(CC(=O)O)O2 (stereo not drawn) [Example 35, 2-[4-(4,5,7-trifluorobenzothiazol-2-yl)methyl-6-methyl-3,4-dihydro-3-oxo-2H-1,4-benzoxazin-2-yl] acetic acid]",IC50,aldose reductase,9.1 nM
"Cc1ccc2c(c1)N(Cc1nc3c(F)c(F)ccc3s1)C(=O)C(CC(=O)O)O2 (stereo not drawn) [Example 36, 2-[4-(4,5-difluorobenzothiazol-2-yl)methyl-6-methyl-3,4-dihydro-3-oxo-2H-1,4-benzoxazin-2-yl]acetic acid]",IC50,aldose reductase,9.2 nM
same,Sorbitol accumulation (%) erythrocytes,[1]; [3],17.3** %
same,Sorbitol accumulation (%) lens,[1]; [3],60.7* %
same,Sorbitol accumulation (%) nerve,[1]; [3],23.5** %
"O=C(O)CC1Oc2ccc(Cl)cc2N(Cc2nc3c(F)c(F)cc(F)c3s2)C1=O (stereo not drawn) [Example 38, 2-[6-chloro-4-(4,5,7-trifluorobenzothiazol-2-yl)methyl-3,4-dihydro-3-oxo-2H-1,4-benzoxazin-2-yl]acetic acid]",Sorbitol accumulation (%) erythrocytes,[1]; [3],24.6** %
same,Sorbitol accumulation (%) lens,[1]; [3],44.1** %
same,Sorbitol accumulation (%) nerve,[1]; [3],0.0** %
"O=C(O)CC1Oc2ccc(Cl)cc2N(Cc2nc3c(F)c(F)ccc3s2)C1=O (stereo not drawn) [Example 39, 2-[6-chloro-4-(4,5-difluorobenzothiazol-2-yl)methyl-3,4-dihydro-3-oxo-2H-1,4-benzoxazin-2-yl]acetic acid]",IC50,aldose reductase,9.9 nM
"Cc1ccc2c(c1)OC(CC(=O)O)C(=O)N2Cc1nc2cc(F)cc(F)c2s1 (stereo not drawn) [Example 43, 2-[4-(5,7-difluorobenzothiazol-2-yl)methyl-7-methyl-3,4-dihydro-3-oxo-2H-1,4-benzoxazin-2-yl]acetic acid]",Sorbitol accumulation (%) erythrocytes,[1]; [3],34.9** %
same,Sorbitol accumulation (%) lens,[1]; [3],100.9%
same,Sorbitol accumulation (%) nerve,[1]; [3],60.6** %
"O=C(O)CC1Oc2cc(F)ccc2N(Cc2nc3c(F)c(F)cc(F)c3s2)C1=O (stereo not drawn) [Example 44, 2-[7-fluoro-4-(4,5,7-trifluorobenzothiazol-2-yl)methyl-3,4-dihydro-3-oxo-2H-1,4-benzoxazin-2-yl]acetic acid]",Sorbitol accumulation (%) erythrocytes,[1]; [3],25.9** %
same,Sorbitol accumulation (%) lens,[1]; [3],52.0** %
same,Sorbitol accumulation (%) nerve,[1]; [3],4.7 ** %
"O=C(O)CC1Oc2cc(F)ccc2N(Cc2nc3c(F)c(F)ccc3s2)C1=O (stereo not drawn) [Example 45, 2-[7-fluoro-4-(4,5-difluorobenzothiazol-2-yl)methyl-3,4-dihydro-3-oxo-2H-1,4-benzoxazin-2-yl]acetic acid]",Sorbitol accumulation (%) erythrocytes,[1]; [3],32.4** %
same,Sorbitol accumulation (%) lens,[1]; [3],71.8* %
same,Sorbitol accumulation (%) nerve,[1]; [3],56.8** %
